Tests used:
KRas^G12C = target: T1, KRas^G12C (Homo sapiens, UniProt P01116, G12C); assay: KRas binding assay (TR-FRET tracer displacement), KRas G12C; conditions: TR-FRET tracer displacement, KRas G12C
T1 construct: Biotinylated KRas (corresponding to amino acids 1-169, produced at Accelegan Inc.); biotin (biotinylated); purchased Accelegan Inc

KRas^WT = target: T2, KRas^WT (Homo sapiens, UniProt P01116); assay: KRas binding assay (TR-FRET tracer displacement), KRas WT; conditions: TR-FRET tracer displacement, KRas WT
T2 construct: Biotinylated KRas (corresponding to amino acids 1-169, produced at Accelegan Inc.); biotin (biotinylated); purchased Accelegan Inc

KRas^G12A = target: T3, KRas^G12A (Homo sapiens, UniProt P01116, G12A); assay: KRas binding assay (TR-FRET tracer displacement), KRas G12A; conditions: TR-FRET tracer displacement, KRas G12A
T3 construct: Biotinylated KRas (corresponding to amino acids 1-169, produced at Accelegan Inc.); biotin (biotinylated); purchased Accelegan Inc

KRas^G12D = target: T4, KRas^G12D (Homo sapiens, UniProt P01116, G12D); assay: KRas binding assay (TR-FRET tracer displacement), KRas G12D
T4 construct: Biotinylated KRas (corresponding to amino acids 1-169, produced at Accelegan Inc.); biotin (biotinylated); purchased Accelegan Inc

KRas^G12R = target: T5, KRas^G12R (Homo sapiens, UniProt P01116, G12R); assay: KRas binding assay (TR-FRET tracer displacement), KRas G12R
T5 construct: Biotinylated KRas (corresponding to amino acids 1-169, produced at Accelegan Inc.); biotin (biotinylated); purchased Accelegan Inc

KRas^G13D = target: T6, KRas^G13D (Homo sapiens, UniProt P01116, G13D); assay: KRas binding assay (TR-FRET tracer displacement), KRas G13D; conditions: TR-FRET tracer displacement, KRas G13D
T6 construct: Biotinylated KRas (corresponding to amino acids 1-169, produced at Accelegan Inc.); biotin (biotinylated); purchased Accelegan Inc

KRas^G12V = target: T7, KRas^G12V (Homo sapiens, UniProt P01116, G12V); assay: KRas binding assay (TR-FRET tracer displacement), KRas G12V
T7 construct: Biotinylated KRas (corresponding to amino acids 1-169, produced at Accelegan Inc.); biotin (biotinylated); purchased Accelegan Inc

[1] = test system: KRas-mediated phosphorylation of ERK in AsPC-1 cells; assay: Inhibition of KRas-mediated phosphorylation of ERK (Cisbio HTRF pERK), AsPC-1 cells; assay type: cell-based; conditions: Homo sapiens, ASPC1, AsPC-1 cells; HTRF pERK
How it was run: (§1)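 6,000 cells/well; cpd 10 uM top, 3-fold x10, 0.8% DMSO final; 3 hr incubation; Min ctrl Trametinib 0.2 uM; lysis 40 min 4° C shaking; d2 + Cryptate Ab mix, 2 hr RT; HTRF read.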

KRas^G12S = target: T8, KRas^G12S (Homo sapiens, UniProt P01116, G12S); assay: KRas binding assay (TR-FRET tracer displacement), KRas G12S; conditions: TR-FRET tracer displacement, KRas G12S
T8 construct: Biotinylated KRas (corresponding to amino acids 1-169, produced at Accelegan Inc.); biotin (biotinylated); purchased Accelegan Inc

[2] = test system: KRas-mediated phosphorylation of ERK in H727 cells; assay: Inhibition of KRas-mediated phosphorylation of ERK (Cisbio HTRF pERK), H727 cells; assay type: cell-based; conditions: Homo sapiens, NCI-H727, H727 cells; HTRF pERK
How it was run: as §1

KRas^Q61H = target: T9, KRas^Q61H (Homo sapiens, UniProt P01116, Q61H); assay: KRas binding assay (TR-FRET tracer displacement), KRas Q61H; conditions: TR-FRET tracer displacement, KRas Q61H
T9 construct: Biotinylated KRas (corresponding to amino acids 1-169, produced at Accelegan Inc.); biotin (biotinylated); purchased Accelegan Inc
T9 sequence (P01116 1-169 isoform P01116-2 Q61H): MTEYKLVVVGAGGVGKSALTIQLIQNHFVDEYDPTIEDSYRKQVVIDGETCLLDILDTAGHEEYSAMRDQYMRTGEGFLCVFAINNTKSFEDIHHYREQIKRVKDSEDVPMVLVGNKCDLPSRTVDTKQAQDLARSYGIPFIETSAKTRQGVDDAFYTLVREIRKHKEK

T4 sequence (P01116 1-169 isoform P01116-2 G12D): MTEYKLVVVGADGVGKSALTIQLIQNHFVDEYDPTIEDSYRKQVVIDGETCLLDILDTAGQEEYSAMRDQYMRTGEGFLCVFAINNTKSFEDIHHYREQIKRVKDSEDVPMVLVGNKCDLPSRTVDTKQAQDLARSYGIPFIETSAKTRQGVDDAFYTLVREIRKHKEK
T8 sequence (P01116 1-169 isoform P01116-2 G12S): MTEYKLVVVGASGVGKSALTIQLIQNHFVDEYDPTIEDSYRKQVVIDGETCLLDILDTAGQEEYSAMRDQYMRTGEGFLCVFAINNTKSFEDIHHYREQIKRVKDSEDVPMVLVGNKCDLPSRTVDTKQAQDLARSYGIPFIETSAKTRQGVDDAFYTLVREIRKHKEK
T7 sequence (P01116 1-169 isoform P01116-2 G12V): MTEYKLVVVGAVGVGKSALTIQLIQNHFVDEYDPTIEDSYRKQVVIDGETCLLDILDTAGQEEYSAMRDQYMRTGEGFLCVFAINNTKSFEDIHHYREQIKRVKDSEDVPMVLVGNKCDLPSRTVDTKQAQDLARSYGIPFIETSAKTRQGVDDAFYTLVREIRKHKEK
T5 sequence (P01116 1-169 isoform P01116-2 G12R): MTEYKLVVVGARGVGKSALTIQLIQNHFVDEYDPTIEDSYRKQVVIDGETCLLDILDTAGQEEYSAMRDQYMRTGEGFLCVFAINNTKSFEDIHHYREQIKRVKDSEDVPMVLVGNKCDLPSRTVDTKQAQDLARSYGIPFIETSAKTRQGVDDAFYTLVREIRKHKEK
T1 sequence (P01116 1-169 isoform P01116-2 G12C): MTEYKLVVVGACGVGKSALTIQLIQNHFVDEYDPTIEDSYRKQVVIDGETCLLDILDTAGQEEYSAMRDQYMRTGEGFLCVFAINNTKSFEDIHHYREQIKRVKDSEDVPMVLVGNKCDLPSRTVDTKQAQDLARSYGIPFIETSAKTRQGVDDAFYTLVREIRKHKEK
T2 sequence (P01116 1-169 isoform P01116-2): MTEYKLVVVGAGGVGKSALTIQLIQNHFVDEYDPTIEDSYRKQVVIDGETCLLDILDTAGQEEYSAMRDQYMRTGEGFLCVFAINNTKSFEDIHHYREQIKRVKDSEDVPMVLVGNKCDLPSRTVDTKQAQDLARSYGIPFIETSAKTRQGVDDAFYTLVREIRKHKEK
T3 sequence (P01116 1-169 isoform P01116-2 G12A): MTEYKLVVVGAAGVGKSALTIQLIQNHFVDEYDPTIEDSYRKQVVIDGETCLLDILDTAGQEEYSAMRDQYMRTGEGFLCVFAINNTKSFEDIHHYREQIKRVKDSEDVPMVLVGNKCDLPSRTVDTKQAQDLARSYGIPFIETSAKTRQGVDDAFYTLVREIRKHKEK
T6 sequence (P01116 1-169 isoform P01116-2 G13D): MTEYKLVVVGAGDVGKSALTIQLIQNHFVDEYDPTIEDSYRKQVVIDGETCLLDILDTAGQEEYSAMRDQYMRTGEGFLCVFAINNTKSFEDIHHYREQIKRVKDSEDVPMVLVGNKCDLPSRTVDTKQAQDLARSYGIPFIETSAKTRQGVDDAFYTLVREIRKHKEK

Row | IC50 (KRas^G12C) [nM] | IC50 (KRas^WT) [nM] | IC50 (KRas^G12A) [nM] | IC50 (KRas^G12D) [nM] | IC50 (KRas^G12R) [nM] | IC50 (KRas^G13D) [nM] | IC50 (KRas^G12V) [nM] | IC50 [1] [nM] | IC50 (KRas^G12S) [nM] | IC50 [2] [nM] | IC50 (KRas^Q61H) [nM] | Compound
1 | 7 | 9 | 10 | 4 | 11 | 8 | 5 | 2630 | 9 | 3160 | 6 | CC1(O)COCCN(c2nc(OCC34CCCN3CCC4)nc3c(F)c(-c4cc(O)cc(Cl)c4C4CC4)ncc23)C1 (racemic) [Example 740, rac-(R)-4-(7-(3-chloro-2-cyclopropyl-5-hydroxyphenyl)-8-fluoro-2-((tetrahydro-1H-pyrrolizin-7a(5H)-yl)methoxy)pyrido[4,3-d]pyrimidin-4-yl)-6-methyl-1,4-oxazepan-6-ol]
2 | 812 | 965 | 763 | 1610 | 441 | 1120 | 410 | > 10000 | 494 | > 10000 | 1210 | Cc1cc2[nH]ncc2c(-c2ncc3c(N4CC5CC(O)C(C5)C4)nc(OCC45CCCN4CCC5)nc3c2F)c1C (stereo not shown) [Example 725, 3-(7-(5,6-dimethyl-1H-indazol-4-yl)-8-fluoro-2-((tetrahydro-1H-pyrrolizin-7a(5H)-yl)methoxy)pyrido[4,3-d]pyrimidin-4-yl)-3-azabicyclo[3.2.1]octan-6-ol]
3 | 208 | 145 | 242 | 58 | 344 | 138 | 131 | > 10000 | 68 | > 10000 | 177 | Cc1cc2[nH]ncc2c(-c2ncc3c(N4CC5C(=O)NC(=O)C5C4)nc(OCC45CCCN4CCC5)nc3c2F)c1C (stereo not shown) [Example 726, 5-(7-(5,6-dimethyl-1H-indazol-4-yl)-8-fluoro-2-((hexahydro-1H-pyrrolizin-7a-yl)methoxy)pyrido[4,3-d]pyrimidin-4-yl)tetrahydropyrrolo[3,4-c]pyrrole-1,3(2H,3aH)-dione]
4 | 421 | 657 | 516 | 634 | 520 | 888 | 333 | > 10000 | 540 | > 10000 | 947 | Cc1cc2[nH]ncc2c(-c2ncc3c(N4CCCC5(CC(O)C5)C4)nc(OCC45CCCN4CCC5)nc3c2F)c1C (stereo not shown) [Example 727, 6-(7-(5,6-dimethyl-1H-indazol-4-yl)-8-fluoro-2-((hexahydro-1H-pyrrolizin-7a-yl)methoxy)pyrido[4,3-d]pyrimidin-4-yl)-6-azaspiro[3.5]nonan-2-ol]
5 | 40 | 45 | 48 | 26 | 61 | 46 | 36 | > 10000 | 40 | > 10000 | 53 | Cc1cc2[nH]ncc2c(-c2ncc3c(N4CCCC5(CNC(=O)N5)C4)nc(OCC45CCCN4CCC5)nc3c2F)c1C (stereo not shown) [Example 729, 7-(7-(5,6-dimethyl-1H-indazol-4-yl)-8-fluoro-2-((hexahydro-1H-pyrrolizin-7a-yl)methoxy)pyrido[4,3-d]pyrimidin-4-yl)-1,3,7-triazaspiro[4.5]decan-2-one]
6 | 131 | 343 | 251 | 35 | 203 | 513 | 75 | > 10000 | 113 | > 10000 | 444 | Cc1cc2[nH]ncc2c(-c2ncc3c(N4CCCn5nc(C(=O)N(C)C)cc5C4)nc(OCC45CCCN4CCC5)nc3c2F)c1C [Example 730, 5-(7-(5,6-dimethyl-1H-indazol-4-yl)-8-fluoro-2-((hexahydro-1H-pyrrolizin-7a-yl)methoxy)pyrido[4,3-d]pyrimidin-4-yl)-N,N-dimethyl-5,6,7,8-tetrahydro-4H-pyrazolo[1,5-a][1,4]diazepine-2-carboxamide]
7 | 11 | 12 | 13 | 15 | 10 | 13 | 8 | > 10000 | 12 | > 10000 | 13 | Cc1cc2[nH]ncc2c(-c2ncc3c(N4CCC[C@]5(C4)NC(=O)NC5=O)nc(OC[C@@]45CCCN4C[C@H](F)C5)nc3c2F)c1C [Example 731, (5R)-7-(7-(5,6-dimethyl-1H-indazol-4-yl)-8-fluoro-2-(((2R,7aS)-2-fluorohexahydro-1H-pyrrolizin-7a-yl)methoxy)pyrido[4,3-d]pyrimidin-4-yl)-1,3,7-triazaspiro[4.5]decane-2,4-dione]
8 | 43 | 50 | 61 | 113 | 47 | 60 | 31 | > 10000 | 63 | > 10000 | 79 | Cc1cc2[nH]ncc2c(-c2ncc3c(N4CCC[C@]5(C4)NC(=O)NC5=O)nc(OCC4(CN(C)C)CC4)nc3c2F)c1C [Example 732, (5R)-7-(7-(5,6-dimethyl-1H-indazol-4-yl)-2-((1-((dimethylamino)methyl)cyclopropyl)methoxy)-8-fluoropyrido[4,3-d]pyrimidin-4-yl)-1,3,7-triazaspiro[4.5]decane-2,4-dione]
9 | 9 | 11 | 11 | 17 | 2 | 10 | 3 | 5960 | 9 | 1510 | 9 | Oc1cc(Cl)c(C2CC2)c(-c2ncc3c(N4C[C@H]5C[C@@H](C4)[C@H](O)C5)nc(OCC45CCCN4CCC5)nc3c2F)c1 [Example 738, (1S,5S,6R)-3-(7-(3-chloro-2-cyclopropyl-5-hydroxyphenyl)-8-fluoro-2-((tetrahydro-1H-pyrrolizin-7a(5H)-yl)methoxy)pyrido[4,3-d]pyrimidin-4-yl)-3-azabicyclo[3.2.1]octan-6-ol]
10 | < 2 | < 2 | 2 | 3 | < 2 | < 2 | < 2 | > 10000 | < 2 | > 10000 | < 2 | O=C1NC(=O)C2(CCCN(c3nc(OCC45CCCN4CCC5)nc4c(F)c(-c5cc(O)cc(Cl)c5C5CC5)ncc34)C2)N1 (stereo not shown) [Example 739, 7-(7-(3-chloro-2-cyclopropyl-5-hydroxyphenyl)-8-fluoro-2-((hexahydro-1H-pyrrolizin-7a-yl)methoxy)pyrido[4,3-d]pyrimidin-4-yl)-1,3,7-triazaspiro[4.5]decane-2,4-dione]
11 | < 2 | < 2 | 2 | < 2 | < 2 | 3 | < 2 | > 10000 | < 2 | > 10000 | < 2 | O=C1NCC2(CCCN(c3nc(OCC45CCCN4CCC5)nc4c(F)c(-c5cc(O)cc(Cl)c5C5CC5)ncc34)C2)N1 (stereo not shown) [Example 741, 7-(7-(3-chloro-2-cyclopropyl-5-hydroxyphenyl)-8-fluoro-2-((hexahydro-1H-pyrrolizin-7a-yl)methoxy)pyrido[4,3-d]pyrimidin-4-yl)-1,3,7-triazaspiro[4.5]decan-2-one]
12 | 3820 | 3420 | 3690 | 2670 | 8950 | 2720 | 4410 | – | 4440 | – | 4530 | Cc1cc2[nH]ccc2c(-c2ncc3c(N4CCC[C@@](C)(O)C4)nc(OCC45CCCN4CCC5)nc3c2F)c1C [Example 871, (3R)-1-(7-(5,6-dimethyl-1H-indol-4-yl)-8-fluoro-2-((tetrahydro-1H-pyrrolizin-7a(5H)-yl)methoxy)pyrido[4,3-d]pyrimidin-4-yl)-3-methylpiperidin-3-ol]
13 | 199 | 579 | 375 | 40700 | 62300 | 567 | 58300 | – | 201 | – | 539 | Cc1cc2[nH]cnc2c(-c2ncc3c(N4CCC[C@@](C)(O)C4)nc(OCC45CCCN4CCC5)nc3c2F)c1C [Example 888, (3R)-1-(7-(5,6-dimethyl-1H-benzo[d]imidazol-4-yl)-8-fluoro-2-((tetrahydro-1H-pyrrolizin-7a(5H)-yl)methoxy)pyrido[4,3-d]pyrimidin-4-yl)-3-methylpiperidin-3-ol]
